Source: US5886011A, “Piperidine derivatives as substance P antagonists” (Hisamitsu Pharmaceutical Co., Inc., priority 1995, dated 1999)

Experiments:
[1] = target: T1, Substance P receptor (guinea pig ileum longitudinal muscle) (Cavia porcellus, UniProt P30547); assay: Receptor-binding test ([125I]SP ligand, guinea pig ileum longitudinal muscle receptor samples); conditions: 10^-8 M compound; [125I]SP 50 pM, 22° C., 20 minutes
T1 construct: ileum was removed and the longitudinal muscle was stripped off; from tissue; host or cells: guinea pig ileum longitudinal muscle, washed membrane pellets
T1 sequence (P30547 whole entry): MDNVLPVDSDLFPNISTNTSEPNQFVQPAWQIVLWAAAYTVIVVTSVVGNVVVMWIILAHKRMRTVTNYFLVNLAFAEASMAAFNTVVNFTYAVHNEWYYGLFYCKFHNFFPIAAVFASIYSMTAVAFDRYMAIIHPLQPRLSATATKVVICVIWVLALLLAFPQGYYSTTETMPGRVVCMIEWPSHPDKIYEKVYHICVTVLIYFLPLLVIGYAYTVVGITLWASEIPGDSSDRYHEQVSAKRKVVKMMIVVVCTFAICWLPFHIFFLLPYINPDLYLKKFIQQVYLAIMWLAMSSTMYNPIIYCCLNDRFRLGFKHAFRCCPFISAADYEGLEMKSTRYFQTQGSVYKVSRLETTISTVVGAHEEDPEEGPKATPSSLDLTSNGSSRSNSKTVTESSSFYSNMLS
Method: To the longitudinal muscles, 20 times of the wet weight of the buffer solution (1) (50 mM tris-HCl buffer solution containing 2 mM MgCl2 and 0.1 mM phenyl methyl sulfonyl-fluoride, pH 7.4) was added. The mixture was homogenized under ice-cooling and centrifuged at 48,000×G for 15 minutes. After removing the supernatant, the pellets were re-suspended in the buffer solution (1) and centrifuged at 48,000×G for 15 minutes. The buffer solution (2) (50 mM tris.HCl buffer solution containing 10 mM ethylenediaminetetraacetic acid and 300 mM KCl, pH 7.4) was added to the pellets and suspended to be reacted under ice-cooling for 60 minutes. The resulted reaction materials were centrifuged at 48,000×G for 15 minutes. After suspending the pellets in the buffer solution (1) and distributing, the mixture were centrifuged at 48,000×G for 15 minutes. The pellets were stored at -80° C. until used as receptor samples.
Thus obtained receptor samples were suspended in 50 mM tris-HCl buffer solution to be used. As the buffer solution, binding buffer solution (tris.HCl buffer solution containing 0.02% bovine serum albumin, 40 μg/ml bacitracin, 4 μg/ml chymostatin, 4 μg/ml leupeptin and 3 mM MnCl2, pH7.4) was used.

[2] = test system: cisplatin-induced emesis; assay: Anti-emetic effect against cisplatin-induced emesis; format: in vivo, ferret (male)
Method: D. Anti-emetic Effect against Cisplatin-induced Emesis
The test was carried out using male ferret (approx. 1.5 kg.). Emesis was induced by intraperitoneal administration of cisplatin (10 mg/kg). 1 mg/kg of the subject compounds were administered orally just after the cisplatin administration. The results will be shown in Table 3 as the inhibition rates compared to the control group, using the number of vomits as indexes. Further, for comparisons, the following compounds A and C were used.

[3] = test system: Substance P (guinea pig ileum); assay: Bioassay test: Substance P-induced contraction of guinea pig ileum strips; conditions: 10^-7 M compound; contraction by 10^-8 M Substance P regarded as 100%
Method: B. Bioassay Test […] After exsanguinating guinea pigs (body weight: 500-600 g) deadly, ileum was removed and 2 cm of ileum strips were prepared. In a Tyrode's solution (10 ml, 37° C.) in which air is passed, containing 5.2 μM atropine and 4.1 μM indomethacin, the strips having 0.5 g resting tension was suspended, and contractions of muscle were recorded on a recording device (RTA-1200, manufactured by Nihon Kohden) via an isotonic transducer (TB-612T, manufactured by Nihon Kohden). Using three specimens per one group, effects of the subject drugs on the muscle contraction caused by 10^-8 M Substance P were determined.

[4] = test system: Substance P; assay: Antagonism test on Substance P-induced airway edema; format: in vivo, guinea pig (hartley male); conditions: Cavia porcellus, po, compared to the control group, read-out: Inhibition Rate (airway edema, dye transudated into trachea and main bronchi); for inhibition in vivo at 1 mg/kg: 1 mg/kg orally, thirty minutes before induction
Method: C. Antagonism Test on Substance P-induced Airway Edema
20 mg/kg of Evans' Blue and 1 nm/kg Substance P containing 200 I.U./kg of heparin were administered intravenously to hartley male guinea pigs in order to induce airway edema. After ten minutes, the guinea pigs were exsanguinated deadly. The amounts of the dye transudated into trachea and main bronchi were determined. 1 mg/kg of the subject compounds were administered orally at thirty minutes before the induction. […] Further, for comparison, the following compounds A and B were used.

[5] = test system: SD rats; assay: Toxicity test, seven days; format: in vivo, rat (male SD); conditions: 3, 10 and 30 mg/kg, male SD rats
Method: 3, 10 and 30 mg/kg of the compound of Example 46 are administered to five male SD rats per one group for seven days. The compound had no influence on body weights gains, organ weights, numbers of erythrocytes nor numbers of leukocytes.

[6] = 1 mg/kg orally just after cisplatin (10 mg/kg i.p.), compared to the control group

Compound | inhibition at 0.01 µM [1] [%] | Inhibition Rate (number of vomits) [2, 6] [%] | Contriction Inhibition [3] [%] | inhibition in vivo at 1 mg/kg [4] [%] | Inhibition Rate (number of vomits) ([2]; 10 mg/kg (comparison compound), orally just after cisplatin (10 mg/kg i.p.)) [%] | inhibition in vivo at 10 mg/kg ([4]; 10 mg/kg (comparison compound), orally) [%] | influence on body weights gains [5] | influence on numbers of erythrocytes [5] | influence on numbers of leukocytes [5] | influence on organ weights [5]
CC(C)c1cc2c(c(CN[C@H]3CCCN[C@H]3c3ccccc3)c1)OCC2.Cl [Example 23, (2S,3S)-3-[(5-isopropyl-2,3-dihydrobenzofuran-7-yl)methyl]amino-2-phenylpiperidine hydrochloride] | 83.2 | 70 | 80.3 | 89 | – | – | – | – | – | –
COc1ccccc1CN[C@H]1CCCN[C@H]1c1ccccc1.Cl [Compound A, (2S,3S)-3-(2-methoxybenzyl)amino-2-phenylpiperidine hydrochloride, reference compound] | – | – | – | – | 19 | 12 | – | – | – | –
CSc1cc2c(c(CN[C@H]3CCCN[C@H]3c3ccccc3)c1)OCC2.Cl [Example 46, (2S,3S)-3-[(5-methylthio-2,3-dihydrobenzofuran-7-yl)methyl]amino-2-phenylpiperidine hydrochloride] | 65.3 | 60 | 72.3 | 72 | – | – | no influence | no influence | no influence | no influence
Cl.c1ccc([C@@H]2NCCC[C@@H]2NCc2cc(C3CCCC3)cc3c2OCC3)cc1 [Example 25, (2S,3S)-3-[(5-cyclopentyl-2,3-dihydrobenzofuran-7-yl)methyl]amino-2-phenylpiperidine hydrochloride] | 89.2 | 73 | 85.1 | 90 | – | – | – | – | – | –
Cl.FC(F)(F)Oc1cc2c(c(CN[C@H]3CCCN[C@H]3c3ccccc3)c1)OCC2 [Example 53, (2S,3S)-3-[(5-trifluoromethoxy-2,3-dihydrobenzofuran-7-yl)methyl]amino-2-phenylpiperidine hydrochloride] | 53.5 | 65 | 69.3 | 69 | – | – | – | – | – | –
